Results published in US12385066B2, “Retroviral transduction using poloxamers” (HELMHOLTZ ZENTRUM MUNCHEN—DEUTSCHES FORSCHU[…] GESUNDHEIT …, priority 2012, dated 2025).

Assays:
[1] = system: HEK293T cells; assay: Cell proliferation assay (WST-1), cellular toxicity of adjuvants; type: cell-based, human
Protocol: In 6-well plates, triplicates of 2×10^5 cells per well were seeded and treated with defined adjuvant concentrations ranging from 1 μg/ml to 1000 μg/ml. After 24 hours incubation (at 37° C. with 5% C02) the medium was exchanged with fresh medium and cells were incubated for additional 48 hours. Cell proliferation was determined with the WST-1 colorimetric cell proliferation assay (Roche), according to manufacturer's instructions. Shortly, cells were trypsinized following 100 μl cell incubation with 10 μl WST-1 substrate (at 37° C. with 5% C02) for 2 hours. The assay was performed in 96-well microtiter plates and absorbance was determined at 490 nm using a TECAN-Infinite microplate reader (TECAN).
From potential adjuvant substances for lentiviral gene delivery we selected five representatives from the class of polycation-like and seven from the class of poloxamer-like chemical substances (Tab. 1). HEK293T cells were co-incubated with defined substance concentration for 24 hours, than medium was changed and cells were incubated for additional 48 hours prior measurements of cell proliferation. To test specific HEK293T growth inhibition by different substances we measured incorporation of WST1 substrate and correlated to control cell population without any substance co-incubation (FIG. 1). […]

[2] = system: HEK293T cells; assay: Adjuvant-assisted lentiviral (GFP) gene transfer into HEK293T cells, flow cytometry; type: cell-based, human
Protocol: HEK293T cells (2×10^5 cells per well) were covered with 1 ml medium containing lentivirus (GP) with or without adjuvants. […] In given case, plates were centrifuged at 1,000 g for 60 min. After 24 hours incubation (at 37° C. with 5% CO2) the supernatant was exchanged with fresh medium and incubated for additional 48 hours. Combined microscopic analysis and documentation was done after 48 hours post infection (HBO 50/AC and AxioCam MRC, Carl Zeiss AG). […] Plates were centrifuged at 800 g for 90 min.
After lentiviral transduction, cells were washed in PBS and resuspended in PBS with 1 μg/mi propidium iodide (Invitrogen). After 10 min incubation on ice, 30,000 events were analyzed for forward/sideward scatter characteristics, green fluorescence light emission at 530 nm and red fluorescence light emission at 610 nm in FACSDiva (BD Biosciences).
HEK293T cells were covered (for 24 hours) with a mixture of LV with specified adjuvant in a maximum tolerable concentration (1000 μg/ml). LV carrying a CopGFP-coding transgene were applied in decreasing MOI from 2.5 to 0.0025. After medium change, cells were cultivated for another 48 hours and measured for green fluorescent light emission by flow cytometry.
HEK293T cells were covered (for 24 hours) with a mixture of LV as used in example 3 with specified adjuvant up to a maximum applied concentration of 5000 μg/ml Synperonic F108. […]

| SMILES | cell proliferation / cellular viability ([1]; 1000 μg/ml, FIG. 1) | transduction efficiency (in words) ([2]; MOI 2.5, polybrene 10 μg/ml, others 1000 μg/ml, FIG. 2) | transduction/infection compared with polybrene-assisted LV infection (in words) ([2]; polybrene 10 μg/ml, others 1000 μg/ml and above) | cell proliferation / toxicity ([1]; increasing concentrations above 10 μg/ml, FIG. 1a) |
| --- | --- | --- | --- | --- |
| CCCCCCCC/C=C\CCCCCCCC(=O)OC[C@H](COP(=O)(O)OCCN)OC(=O)CCCCCCC/C=C\CCCCCCCC [PEA, L-α-Phosphatidyl-ethanolamine-dioleoyl] | remained non-toxic | low transduction rates | failed to further increase this transduction level | – |
| CC(C)CCC[C@@H](C)[C@H]1CC[C@H]2[C@@H]3CC=C4C[C@@H](OC(=O)NCCN(C)C)CC[C@]4(C)[C@H]3CC[C@]12C.Cl [Cholesterylcarbamate, Cholesteryl-3β-N-(dimethyl-amino-ethyl)-carbamate-hydrochloride] | – | – | – | massive reduction in cell proliferation |
